Test results published in patent US20130158070A1, “CONJUGATES OF POLYUNSATURATED FATTY ACIDS AND AMINE-CONTAINING COMPOUNDS AND USES THEREOF” (priority 2010, published 2013).

Assays:
[1] = test system: carrageenan-induced edema; test: Carrageenan-induced paw edema in rats; assay type: in vivo, Sprague dawley rats; details: carrageenan 1 mg/paw, versus Ibuprofen, FIG. 4
Method: Exemplary conjugates were subjected to in vivo study of paw edema measurements in rats. Sprague dawley rats (150-200 grams) were used. Edema was induced by a single sub-plantar injection of carrageenan (1 mg/paw) into the left hind paw of the rat under light ether anesthesia. The total volume injected was 0.1 ml. The paw volume was measured immediately before the injection and at hourly intervals thereafter using a hydroplethysmometer (model 7150, Ugo Basile, Italy). The results were expressed either as the increase in paw volume (ml) calculated by subtracting the basal volume or by calculating the area under the time-course curve (AUC; ml h) for each group.
The anti-inflammatory activity of the conjugates was tested versus Ibuprofen, as a reference, on carrageenan-induced edema at different time intervals.

rat QT and QTc intervals = test: Cardio toxicity: QT prolongation, ECG in anesthetized rats; assay type: in vivo
Excerpt: The QT interval (time from beginning of the QRS complex and to the end of the T wave) of the ECG is a measure of the duration of ventricular depolarization and repolarization. When ventricular repolarization is delayed and the QT interval is prolonged, there is an increased risk of ventricular tachyarrhythmia, including torsade de points (potentially fatal polymorphic ventricular tachycardia). As the QT interval has an inverse relationship to heart rate, the measured QT intervals are generally corrected for heart rate in order to determine whether they are prolonged relative to the baseline.
The initial evaluation of cardiac safety by ECG measurements focuses on QTc duration of MWL001 50 mg/ml concentration.
Male Sprague-Dawley rats (280-300 g of weight) were used for electrocardiographic measurements at basal conditions as well as medicated with QND and MWL. […] Electrocardiograms were recorded using disk electrodes fitted subcutaneously near the right and left axial regions and at the xiphoid cartilage and secured by surgical clips for standard Lead II recording. […] All of the data was recorded (AdInstruments PowerLab 16/30, Australia) for off line analysis.
Heart rate (RR interval), QT interval and QTc (corrected QT interval) were calculated by ECG analysis module in the LabChart 7.2.1 software and manually screened by trained technicians. […]

[2] = test system: oxazolone-induced allergic dermatitis; test: Murine oxazolone-induced allergic dermatitis; assay type: in vivo, mice
Excerpt: An allergic form of contact dermatitis can be induced in mice by repeated epicutaneous application of the chemical sensitizer oxazolone. This leads to local augmented thickness and weight increase of the skin area where the rechallenge was applied; from the histological point of view, oxazolone-induced dermatitis is characterized by severe mononuclear cell infiltration of the dermis with in situ production of the type 1 proinflammatory cytokines TNF-alpha, IL-1alpha and IFN-gamma. These well-defined mechanistic pathways of inflammatory skin damage make oxazolone-dermatitis a useful in vivo tool for pathogenic studies and a pharmacodynamic parameter to screen drugs of potential utility in counteracting type 1 cytokine dependent cutaneous immunoinflammatory responses such as those found in some forms of bullous disorders, cutaneous vasculitis and psoriasis.
The efficacy of MWL001 in the treatment of Murine oxazolone-induced allergic dermatitis was evaluated. MWL001 and DEX were administered one hour after the second challenge with oxazolone.
The mice were sensitized on day 0 by a single application of 10 ∞l of 2% oxazolone (Sigma Chimica, Milan, Italy) in ethanol to the inner and outer surface of the left ear. The disease was elicited by local rechallenge on day 7 with 15% oxazolone. The right ear was treated with the vehicle of oxazolone (acetone). Eighteen hours after […] the mice are sacrificed under ether anesthesia and both the right and left ears were excised.
Inflammation was assessed as the percentage increase in ear thickness and/or ear weight in the treated left ear vs. the vehicle-treated right ear. Ear thickness was measured with a digital calliper. The extent of the inflammation was quantified as follows: ear swelling (%)=100×(a−b)/b, where a is thickness/weight of the left (treated) ear and b is the thickness/weight of the right (untreated) ear.
Ear tissue samples were fixed with 4% formaldehyde in phosphate-buffered saline (PBS) and embedded in paraffin. Thereafter, 6-μm sections were deparaffinized with xylene, stained with hematoxylin-eosin and observed with a Zeiss microscope (Jena, Germany).

[3] = test system: collagen induced arthritis; test: Collagen induced arthritis (CIA), arthritis score, paw thickness, body weight; assay type: in vivo, DBA/1J mice
Method: In a different study, 34 male 8-10 weeks old DBA/1J mice were used. Animals were fed ad libitum a commercial rodent diet (Teklad Certified Global 18% Protein Diet cat #: 106S8216). Animals had free access to acidified drinking water (pH between 2.5 and 3.0) obtained from the municipality supply.
The effect of MWL-002 (conjugate of DHA and taurine) was tested and compared to that of Ibuprofen. Cremophore EL was used as a vehicle.
On day 0, each mouse was anesthetized by inhalation of 3% isofluorane and injected intradermally at the base of the tail with 0.1 ml of emulsion containing 100 μg collagen, using a 1-ml glass syringe with a 26-guade needle. Booster injection was performed at day 15 to the same injection site.
The tested materials were administered 3 times a week, via IP for a total of 12 administrations starting on day 1.
Observations for clinical score were performed twice weekly until study termination.
The severity of arthritis was scored based on the level of inflammation in each of the four paws and recorded as one of five grades according to the following:
Hind paw thickness (edema) was measured by digital caliper once a week until Day 14 and thereafter twice weekly and prior to study termination. Two cross sectional areas were marked, one on the paw and the other at the ankle (tarsal joint). Two measurements were made on each section, perpendicular to each other. The results obtained were calculated as the average areas of both hind limbs per animal.
Body weight was measured prior to dosing, during the study twice a week and prior to study termination.

[4] = eighteen hours after sensitization, given one hour after second oxazolone challenge

Structure (SMILES)	anti-inflammatory effect (paw swelling volume) [1]	cardiotoxic effect (rat QT and QTc intervals; high doses, short term of 2-3 hr, compared to Quinidine)	prolongation of the QTc interval (rat QT and QTc intervals; i.v. 50-166 mg/kg, two hr period after injection)	ear thickness [2, 4]	ear weight [2, 4]	histology: ear thickness and inflammatory cells in epidermis and dermis ([2]; hematoxylin and eosin stained sections)	day from which arthritis score (AS) increases ([3]; 50 mg/kg IP, 3 times a week, 12 administrations)	CIA development ([3]; 50 mg/kg IP, overall conclusion)	body weight ([3]; 50 mg/kg IP, from day 37, in comparison to the other 3 groups)	arthritis thickness index (ATI) increase ([3]; from day 0 to day 70, 50 mg/kg IP, groups 1M DHA-Tau, 2M DHA, 4M Ibuprofen)	ATI course ([3]; from day 43 until end of study, FIG. 8B)
CCC=CCC=CCC=CCC=CCC=CCC=CCCC(=O)N1CC(O)CC1C(=O)O (centres unmarked) [MWL001]	superior to Ibuprofen	no cardiotoxic effect	did not result in prolongation	decreased ear thickness	decreased ear weight	markedly reduced					
CC/C=C\C/C=C\C/C=C\C/C=C\C/C=C\C/C=C\CCC(=O)NCCS(=O)(=O)O [MWL002, N-docosa-4,7,10,13,16,19-hexaenoyl-taurine]							57 days	inhibits CIA development robustly	increase the body weight in a major percent	150%	almost no changes
